Source: paper PMC10162847 (Phytomedicine, 2023)
Like-named read-outs stand apart in the source and are kept apart here.

Legend:
[1] = KM mice, oral 6000 mg/kg (2000 mg/kg 3 times within 24 h), 7 days observation
[2] = tested on: LPS-induced acute lung injury; format: in vivo, C57BL/6 mice; details: ALI mice
[3] = tested on: Vero E6 cells; details: MTT, 72 h
[4] = biological target: interactions between the RBD^WT and ACE2 protein (Severe acute respiratory syndrome coronavirus 2, UniProt P0DTC2); format: binding; details: ELISA
[5] = tested on: SARS-CoV-2 pseudo typed lentivirus; format: cell-based; details: fluorescence signal, 0-300 μM, pre-incubation 0.5 h
[6] = tested on: HCoV-229E; experiment: microbe, parasite or virus in culture; format: cell-based; details: Human coronavirus 229E
[7] = tested on: DNFB-induced ear edema; details: DTH model
[8] = tested on: dimethylbenzene-induced auricular edema
[9] = tested on: RIPK1/NF-κB pathway in THP1 macrophages; format: cell-based
[10] = tested on: carrageenan-induced paw edema; experiment: Carrageenan-induced paw edema in rats; format: in vivo, Sprague-Dawley (SD) rats; details: oral 50, 100, 200 mg/kg for 7 days, 2nd-5th h after carrageenan injection
[11] = tested on: SARS-CoV-2; format: cell-based; details: VeroE6 cells, concentration-dependent
[12] = in vitro; details: human
[13] = oral pre-treatment 200, 300, 400 mg/kg
[14] = Huh-7, read-out: EC50, HCoV-229E replication, CPE assay
[15] = Huh-7, read-out: EC50, HCoV-229E replication, MTT assay
[16] = western blotting, THP1 macrophages

SMILES | acute toxicity, exposure-related clinical symptoms [1] | mRNA levels of TNFα, IL-6 and NF-κBp65 in the lung tissues [2] | alveolar inflammation [2, 13] | lung edema [2, 13] | CC50 [3] [µM] | interactions between the RBD^WT and ACE2 protein [4] | binding of the SARS-CoV-2 pseudo typed lentivirus to HEK293-hACE2-mCherry cells [5] | EC50 [6, 14] [µM] | EC50 [6, 15] [µM] | organ damage ([7]; BALB/c mice) | mouse ear thickness ([7]; oral 50, 100, 200 mg/kg, 20, 40, 60 and 80 min after modeling) | immune organ toxicity ([8]; dimethylbenzene-induced auricular edema model) | edema formation in the dermis ([8]; dimethylbenzene-induced auricular edema, 7 days pre-treatment) | RIPK1 expression levels and mRNA levels of NF-κBp65, RIPK3, RIPK1, MLKL, FADD, Caspase8 and JNK ([9]; LPS-induced THP1 macrophages, 100, 200, 400 μM) | RIPK1, phosphorylation of NF-κBp65 and RIPK1 induced by LPS stimulation [9, 16] | abundance of the NF-κBp65 protein among the total proteins [9, 16] | inflammatory activity (paw edema) [10] | SARS-CoV-2 proliferation [11] | CC50 [12] [µM]
O=c1c(O)c(-c2cc(O)c(O)c(O)c2)oc2cc(O)cc(O)c12 [myricetin, 3,5,7-trihydroxy-2-(3,4,5-tri hydroxyphenyl)-4-benzopyrone] | no exposure-related clinical signs | significantly downregulated | decreased the alveolar inflammation | alleviated lung edema | 248 | significantly inhibited | repressed | 53.5 | 61.5 | without any organ damage | decreased | without immune organ toxicity | significantly suppressed | significantly reduced | significantly inhibited | unaltered | significantly reduce | – | –
CCC(CC)COC(=O)[C@H](C)N[P@](=O)(OC[C@H]1O[C@@](C#N)(c2ccc3c(N)ncnn23)[C@H](O)[C@@H]1O)Oc1ccccc1 [remdesivir, reference compound] | – | – | – | – | – | – | – | 0.0562 | 0.0583 | – | – | – | – | – | – | – | – | inhibited | 108
